ED50, concentration and Efficacy data for 6 molecules are collected here from ChEMBL document CHEMBL1138161, “Structure-activity relationships of alpha-amino acid ligands for the alpha2delta subunit of voltage-gated calcium channels” (Bioorg Med Chem Lett, 2006).

For orientation: ED50 means the dose that gives a 50% effect, or the effect in half of the subjects.

For series [1], the system named is Rattus norvegicus. As to the kind of experiment: Potency against persistent inflammatory pain in orally dosed rat CFA model. To be noted: po. Type of series: functional.
The nature of series [2]: Concentration in rat brain after 0.75 h at 100 umol/kg, po. As to conditions: read-out: Drug uptake. Type of series: ADME, organism-based.
For series [3], the system named is Rattus norvegicus. Put plainly: Maximum efficacy in rat CFA model at 300 umol/kg. Type of series: functional.

In the case of `NCC1(CC(=O)O)CCCCC1` [GABAPENTIN], the ED50 in the series on Rattus norvegicus [1] is 125 µmol/kg. Further, the concentration at 0.75 h in series [2] was 3410 ng/g.
`N[C@H](C(=O)O)c1ccccc1`: in the series with Rattus norvegicus [1], it took a dose of 100 µmol/kg to reach the 50% effect level (ED50). Besides, the concentration at 0.75 h in series [2] amounted to 6300 ng/g.
In the case of `NC(CCSCc1ccc(Br)cc1)C(=O)O` (stereo not given), in the series on Rattus norvegicus [1], the ED50 is over 300 µmol/kg.
Turning to `N[C@@H](CC1CCCCC1)C(=O)O`, the ED50 with Rattus norvegicus [1] was determined as 200 µmol/kg.
On to `N[C@@H](CCSCc1ccccc1)C(=O)O`, for which the ED50 in the series on Rattus norvegicus [1] was 120 µmol/kg. Moreover, the concentration at 0.75 h in series [2] was 430 ng/g.
On to `NC(C(=O)O)c1cccc(Cl)c1` (stereo not given), for which the Efficacy in the series with Rattus norvegicus [3] amounted to 64%. The concentration at 0.75 h in series [2] was 1760 ng/g.
